Laboratory results from patent publication US20100099673A1, “DECAHYDROQUINOLINE ANALOGS AS CB2 RECEPTOR MODULATORS, USEFUL IN THE TREATMENT OF PAIN, RESPIRATORY AND NON-RESPIRATORY DISEASES” (priority 2007, published 2010).
Read-outs that look alike come from different tables or passages of the source.

What was measured:
[1] = biological target: human CB1 (Homo sapiens, UniProt P21554); experiment: Cyclic AMP assay (HTRF), CHO cells expressing human CB1; type: cell-based
Protocol: (§1) Chinese Hamster Ovary cells (CHO) expressing human CB1 or human CB2 (3.3×10^5 cells/ml) were preincubated for 15 min at room temperature with tested agonist and 3-isobutyl-1-methylxanthine (IBMX; 200 μM) in phosphate buffered saline containing 1 mg/ml BSA (assay buffer) followed by 30 min incubation with forskolin in a total volume of 10 μl. The optimal forskolin concentration for each cell line was established in a separate experiment and adjusted to stimulate 70% of maximal cAMP response. cAMP content was measured using an HTRF assay (CisBio) according to the manufacturer's two step protocol.
(§2) In this assay, compounds of the invention have an IP ranging from 1 nM to >17000 nM. The Examples below have an IP ranging from 1 nM to >17000 nM.

[2] = biological target: human CB2 (Homo sapiens, UniProt P34972); experiment: Cyclic AMP assay (HTRF), CHO cells expressing human CB2; type: cell-based; conditions: for Emax: read-out: CB2 Emax
human CB2, sequence (P34972 whole entry): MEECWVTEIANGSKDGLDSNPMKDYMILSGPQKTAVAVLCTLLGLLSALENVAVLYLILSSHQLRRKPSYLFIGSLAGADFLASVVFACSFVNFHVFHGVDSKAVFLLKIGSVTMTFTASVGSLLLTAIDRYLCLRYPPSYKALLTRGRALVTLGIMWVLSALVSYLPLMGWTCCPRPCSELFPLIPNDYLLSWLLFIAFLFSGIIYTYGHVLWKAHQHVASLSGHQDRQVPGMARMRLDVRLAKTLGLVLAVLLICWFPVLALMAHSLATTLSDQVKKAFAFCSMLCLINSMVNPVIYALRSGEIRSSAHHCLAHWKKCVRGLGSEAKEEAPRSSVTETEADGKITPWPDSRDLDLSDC
Protocol: as §1, §2

[3] = IP of agonist in forskolin-stimulated cAMP HTRF assay, CHO cells expressing human CB1, read-out: CB1 (HTRF)
[4] = IP of agonist in forskolin-stimulated cAMP HTRF assay, CHO cells expressing human CB2, read-out: CB2 (HTRF)
[5] = forskolin-stimulated cAMP HTRF assay, CHO cells expressing human CB2

human CB1, sequence (P21554 whole entry): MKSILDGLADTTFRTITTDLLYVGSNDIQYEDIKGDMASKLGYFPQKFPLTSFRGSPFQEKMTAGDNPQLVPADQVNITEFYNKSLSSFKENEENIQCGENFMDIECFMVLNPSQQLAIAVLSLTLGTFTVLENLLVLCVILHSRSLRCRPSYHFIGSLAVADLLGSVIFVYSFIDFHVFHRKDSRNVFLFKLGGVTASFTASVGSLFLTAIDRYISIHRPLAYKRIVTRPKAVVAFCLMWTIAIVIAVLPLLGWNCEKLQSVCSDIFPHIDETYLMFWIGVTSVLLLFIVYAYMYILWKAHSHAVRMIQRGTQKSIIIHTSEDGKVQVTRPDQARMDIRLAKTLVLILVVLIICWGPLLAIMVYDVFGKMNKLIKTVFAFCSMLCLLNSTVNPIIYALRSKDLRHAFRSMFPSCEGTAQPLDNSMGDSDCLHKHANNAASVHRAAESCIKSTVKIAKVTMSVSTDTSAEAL

EC50 [1, 3] [nM]	EC50 [2, 4] [nM]	Emax [2, 5] [%]	SMILES	EC50 [1] [nM]	EC50 [2] [nM]	Emax ([2]; CHO) [%]
6780	10	100	O=C(c1cccnc1)N1CC[C@](O)(c2ccccc2)[C@H]2CCCC[C@H]21 (relative stereo) [Example 135, cis-4-phenyl-1-(pyridin-3-ylcarbonyl)decahydroquinolin-4-ol]			
10500	1.3	99	CC(C)(O)c1ccnc(N2CC[C@](O)(c3ccccc3)[C@H]3CCCC[C@H]32)c1 (relative stereo) [Example 287, (cis)-1-[4-(1-hydroxy-1-methylethyl)pyridin-2-yl]-4-phenyldecahydroquinolin-4-ol]			
> 17000	37	100	O=C(c1ccon1)N1CC[C@](O)(c2ccccc2)[C@H]2CCCC[C@H]21 (single isomer, unassigned) [Example 131, 1-(isoxazol-3-ylcarbonyl)-4-phenyldecahydroquinolin-4-ol]			
	938	86	O=C(c1ccccc1)N1CCC(O)(c2cccnc2)[C@H]2CCCC[C@@H]21 (stereo in doubt) [Example 258, 1-benzoyl-4-pyridin-3-yldecahydroquinolin-4-ol]			
			O[C@]1(c2ccccc2)CCN(Cc2n[nH]c3ccccc23)[C@@H]2CCCC[C@@H]21 (stereo in doubt) [Example 274, 1-(1H-indazol-3-ylmethyl)-4-phenyldecahydroquinolin-4-ol]	> 17000	19	102
> 17000	41	101	Cn1cc(S(=O)(=O)N2CC[C@](O)(c3ccccc3)[C@H]3CCCC[C@H]32)c(C(F)(F)F)n1 (stereo in doubt) [Example 289, 1-{[1-methyl-3-(trifluoromethyl)-1h-pyrazol-4-yl]sulfonyl}-4-phenyldecahydroquinolin-4-ol]			
	90	93	O=C(c1ccccc1)N1CCC(O)(Cc2ccccc2)[C@H]2CCCC[C@@H]21 (stereo partly shown) [Example 260, 1-benozyl-4-benzyldecahydroquinolin-4-ol]			

SMILES	EC50 [1, 3] [nM]	EC50 [2, 4] [nM]	Emax [2, 5] [%]	EC50 [1] [nM]	EC50 [2] [nM]	Emax ([2]; CHO) [%]
O=C(Nc1cccnc1)N1CC[C@](O)(c2ccccc2)[C@H]2CCCC[C@H]21 [Example 291, 4-hydroxy-4-phenyl-n-pyridin-3-yloctahydroquinoline-1(2H)-carboxamide]	> 17000	1100				76
